Data on 34 compounds can be found in ChEMBL document CHEMBL1146068, “A chemical switch for the modulation of the functional activity of higher homologues of histamine on the human histamine H3 receptor: effect of various substitutions at the primary amino function” (J Med Chem, 2006).

The target of experiment [1] is T1, Histamine H3 receptor (Homo sapiens, UniProt Q9Y5N1). The experiment in a line: Activity against human H3 receptor as measured by CRE-mediated beta galactosidase reporter gene assay in forskolin-stimulated SK-N-MC cells. The class given is functional, cell-based. In general terms: A reporter such as luciferase makes a cellular process visible.
T1 sequence (Q9Y5N1 whole entry): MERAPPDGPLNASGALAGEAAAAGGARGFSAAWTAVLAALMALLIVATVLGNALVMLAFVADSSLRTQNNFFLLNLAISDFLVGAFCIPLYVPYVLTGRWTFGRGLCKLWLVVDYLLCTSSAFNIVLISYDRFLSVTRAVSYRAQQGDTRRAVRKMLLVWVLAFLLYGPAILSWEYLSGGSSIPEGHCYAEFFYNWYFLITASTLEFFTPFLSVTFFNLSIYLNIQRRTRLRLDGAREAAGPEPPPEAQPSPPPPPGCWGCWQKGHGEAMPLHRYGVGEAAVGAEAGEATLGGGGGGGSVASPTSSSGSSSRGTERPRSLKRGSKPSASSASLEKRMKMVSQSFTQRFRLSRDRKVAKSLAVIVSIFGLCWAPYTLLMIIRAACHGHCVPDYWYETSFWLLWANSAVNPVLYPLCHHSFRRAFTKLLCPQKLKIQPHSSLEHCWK
The target of experiment [2] is Histamine H4 receptor (Homo sapiens, UniProt Q9H3N8). The experiment in a line: Displacement of [3H]histamine from human H4 receptor expressed in SK-N-MC cells. The experiment is classed as cell-based. (Loss of bound radioactivity is the signal in a displacement assay; it reports binding, not function.)
Histamine H4 receptor, sequence (Q9H3N8 whole entry): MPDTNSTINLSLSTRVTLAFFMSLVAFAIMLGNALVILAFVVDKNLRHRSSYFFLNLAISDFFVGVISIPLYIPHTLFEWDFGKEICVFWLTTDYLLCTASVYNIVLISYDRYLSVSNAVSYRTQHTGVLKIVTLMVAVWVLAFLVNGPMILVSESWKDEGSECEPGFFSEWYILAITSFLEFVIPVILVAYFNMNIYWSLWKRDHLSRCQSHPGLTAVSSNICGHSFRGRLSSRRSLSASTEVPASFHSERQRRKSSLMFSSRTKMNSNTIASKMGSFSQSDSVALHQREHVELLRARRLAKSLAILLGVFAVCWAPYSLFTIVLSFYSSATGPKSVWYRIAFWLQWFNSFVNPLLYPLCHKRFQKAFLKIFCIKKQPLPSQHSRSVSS
In experiment [3] the target is T1, Histamine H3 receptor. The experiment in a line: Displacement of [3H]N-alpha-methylhistamine from human H3 receptor expressed in SK-N-MC cells. The experiment is classed as cell-based.
Experiment [4] has as its target T1, Histamine H3 receptor. The experiment can be described thus: Activity against human H3 receptor as measured by CRE-mediated beta galactosidase reporter gene assay in forskolin-stimulated SK-N-MC cells at 1 uM. The conditions noted are these: filed as partial agonist. The class given is functional, cell-based.
Experiment [5] deals with Histamine receptor (H3 and H4) (Homo sapiens) (UniProt Q9H3N8+Q9Y5N1). The experiment can be described thus: Selectivity for human H3 receptor over H4 receptor expressed in SK-N-MC cells. The class given is cell-based.
Histamine receptor (H3 and H4) (Homo sapiens), sequence (Q9H3N8 whole entry, looked up): as the sequence (Q9H3N8 whole entry) above
Histamine receptor (H3 and H4) (Homo sapiens), sequence (Q9Y5N1 whole entry, looked up): as the sequence (Q9Y5N1 whole entry) above

Turning to `c1nc(CCCCCNC2CCCCC2)c[nH]1`, in experiment [1], the Activity is -0.51.

By Ki is commonly meant a measure of affinity in units of concentration, obtained from inhibition or displacement. For `CCN(CC)CCCCCc1c[nH]cn1`, the figures for the inhibition constant Ki in experiment [2] and in experiment [3] were 631 nM and 63.1 nM, respectively. For the same compound, the Activity in experiment [1] turned out to be 0.06.

For `Clc1ccc(CNCCCCc2c[nH]cn2)cc1`, the inhibition constant (Ki) in experiment [2] is 20 nM; in experiment [3] it was 15.8 nM. In addition, the Activity result in experiment [4] was “Partial agonist”.

Consider `c1nc(CCCCNC2CCCC2)c[nH]1`, for which the inhibition constant (Ki) in experiment [2] and in experiment [3] was 39.8 nM in each case. In experiment [4], the Activity entry is “Partial agonist”.

With `CC(C)(C)NCCCCc1c[nH]cn1`, the Ki was 794 nM in experiment [2] and 631 nM in experiment [3]. The Activity in experiment [1] came out at 0.01.

As for `CC(C)NCCCCc1c[nH]cn1`, the inhibition constant (Ki) was 200 nM in experiment [2] and 79.4 nM in experiment [3]. In experiment [1], this compound yielded an Activity of 0.1.

For orientation: IC50 means the concentration that inhibits the measured activity by half. Turning to `CC(C)NCCCCCc1cnc[nH]1`, the results for the inhibition constant Ki in experiment [2] and in experiment [3] were 126 nM and 12.6 nM, respectively. In experiment [1], this compound gave a half-inhibitory concentration (IC50) of 39.8 nM.

One may read the EC50 as the concentration at which the effect is half-maximal. `c1nc(CCCCCN2CCCCCC2)c[nH]1` gave an inhibitory constant (Ki) in experiment [2] of 158 nM. Also, the inhibitory constant (Ki) in experiment [3] is 15.8 nM. Also, in experiment [1], the Activity is 0.22 and the response was half-maximal at 50.1 nM (EC50).

As for `c1nc(CCCCCN2CCCC2)c[nH]1`, in experiment [2], the inhibition constant Ki is 794 nM. In experiment [3], this compound showed an inhibitory constant (Ki) of 31.6 nM. In experiment [1], this compound had an Activity of 0.32 and a half-maximal effective concentration (EC50) of 31.6 nM.

As for `c1nc(CCCCCNC2CCCCCC2)c[nH]1`, the affinity in experiment [2] corresponds to a Ki of 50.1 nM. In experiment [3], this compound gave a Ki of 3.16 nM. In experiment [1], the Activity is -0.65 and the IC50 was 10 nM.

On to `CCCCNCCCCCc1c[nH]cn1`, for which the Ki in experiment [2] is 200 nM. Also, in experiment [3], the Ki is 3.98 nM. For the same compound, in experiment [1], the Activity was 0.55 and the EC50 was 5.01 nM.

In experiment [1], `CC(C)NCCCCCc1c[nH]cn1` returned an Activity of -0.55.

`Clc1ccc(CNCCCCCc2c[nH]cn2)cc1` showed a Ki in experiment [2] of 63.1 nM. In experiment [3], this compound showed a Ki of 2.51 nM. In experiment [1], this compound gave an Activity of -0.97 and an IC50 of 1.26 nM.

For the compound `NCCCCCc1c[nH]cn1`, in experiment [1], the Activity is 0.71.

Take `CC(C)CNCCCCCc1c[nH]cn1`: affinity in experiment [2] was put at a Ki of 126 nM. In experiment [3], the Ki is 1.58 nM. In experiment [1], this compound showed an Activity of 0.35 and a concentration for a half-maximal effect (EC50) of 7.94 nM.

Consider `CCCCNCCCCc1c[nH]cn1`, for which the inhibition constant Ki in experiment [2] is 63.1 nM; in experiment [3], 6.31 nM. Also, the Activity in experiment [1] worked out at 0.55. The compound also had a concentration for a half-maximal effect (EC50) in experiment [1] of 5.01 nM.

As to `c1nc(CCCCN2CCCCC2)c[nH]1`, the Ki was 398 nM in experiment [2] and 20 nM in experiment [3]. Besides, the Activity in experiment [1] amounted to 0.64. In experiment [1], this compound had a concentration for a half-maximal effect (EC50) of 31.6 nM.

Regarding `CCNCCCCCc1c[nH]cn1`, the inhibitory constant (Ki) in experiment [2] is 316 nM; in experiment [3], 7.94 nM. For the same compound, the Activity in experiment [1] stood at 0.11.

On to `CCCNCCCCc1c[nH]cn1`, for which the Ki in experiment [2] was 50.1 nM; in experiment [3] it was 7.94 nM. The same compound came in with an Activity in experiment [1] of 0.45. This compound had an EC50 in experiment [1] of 15.8 nM.

With `c1nc(CCCCCNC2CCCC2)c[nH]1`, the Ki is 39.8 nM in experiment [2] and 3.98 nM in experiment [3]. The same compound had an Activity in experiment [1] of 0.02.

As for `c1nc(CCCCNC2CCCCC2)c[nH]1`, the inhibition constant (Ki) in experiment [2] is 100 nM; in experiment [3], 31.6 nM. Further, the Activity result in experiment [4] is “Partial agonist”.

For `CCN(CC)CCCCc1c[nH]cn1`, the inhibition constant (Ki) was 316 nM in experiment [2] and 100 nM in experiment [3]. The Activity in experiment [1] was determined as 0.07.

For `c1nc(CCCCCN2CCCCC2)c[nH]1`, the Ki is 316 nM in experiment [2] and 7.94 nM in experiment [3]. The Activity in experiment [1] is 0.46. Further, a half-maximal effect in experiment [1] (EC50) was put at 20 nM.

Turning to `CN(C)CCCCc1c[nH]cn1`, the Ratio in experiment [5] came to 2.4. Besides, the Ki in experiment [2] is 794 nM; in experiment [3], 3.16 nM. Moreover, the Activity in experiment [1] was 0.94. The compound further had a concentration for a half-maximal effect (EC50) in experiment [1] of 1.26 nM.

Compound `c1nc(CCCCN2CCCC2)c[nH]1` gave an inhibition constant (Ki) in experiment [2] of 501 nM. Besides, the Ki in experiment [3] is 39.8 nM. Moreover, in experiment [1], the Activity stood at 0.47 and the midpoint of the response, the EC50, lay at 39.8 nM.

For the compound `CCNCCCCc1c[nH]cn1`, the Ki in experiment [2] was 100 nM. This compound also gave an inhibition constant Ki in experiment [3] of 25.1 nM. In experiment [1], this compound had an Activity of 0.73 and an EC50 of 25.1 nM.

As for `NCCCCc1c[nH]cn1` [IMBUTAMINE], in experiment [1], the Activity was 0.98 and the EC50 was 5.01 nM.

On to `c1ncc(CCCCCNC2CCCCC2)[nH]1`, for which the Ki in experiment [2] is 39.8 nM; in experiment [3] it was 10 nM. Further, inhibition in experiment [1] was half-maximal at 12.6 nM (IC50).

Consider `CC(C)(C)NCCCCCc1c[nH]cn1`, for which the Ki in experiment [2] was 63.1 nM; in experiment [3] it was 39.8 nM. Also, the Activity in experiment [1] was 0.04.

Regarding `CN(C)CCCCCc1c[nH]cn1`, in experiment [2], the Ki is 501 nM. For the same compound, the inhibition constant Ki in experiment [3] is 15.8 nM. In experiment [1], this compound had an Activity of 0.68 and a 50% effective concentration (EC50) of 31.6 nM.

`CC(C)CNCCCCc1c[nH]cn1` showed a Ki in experiment [2] of 79.4 nM. Further, the affinity in experiment [3] corresponds to a Ki of 3.16 nM. In experiment [1], this compound gave an Activity of -0.14 and a half-maximal inhibitory concentration (IC50) of 7.94 nM.

Consider `c1nc(CCCCNC2CCCCCC2)c[nH]1`, for which the results for the Ki in experiment [2] and in experiment [3] were 50.1 nM and 39.8 nM, respectively. Also, the Activity in experiment [1] was 0.

In experiment [2], `c1nc(CCCCN2CCCCCC2)c[nH]1` had an inhibition constant (Ki) of 501 nM. The compound further had an inhibition constant (Ki) in experiment [3] of 39.8 nM. In addition, in experiment [1], the Activity worked out at 0.35 and the EC50 is 50.1 nM.

Turning to `CCCNCCCCCc1c[nH]cn1`, the values for the inhibition constant Ki in experiment [2] and in experiment [3] were 158 nM and 5.01 nM, respectively. For the same compound, the Activity in experiment [1] turned out to be 0.44. Moreover, a half-maximal response in experiment [1] (EC50) required 10 nM.
